Test results as given in patent publication US12077503B2, “Substituted cyclic amides and their use as herbicides” (FMC CORPORATION, priority 2015, dated 2024).

How the values were obtained:
Assay type in all cases: in vivo
[1] = tested on: giant foxtail (Setaria faberi); experiment: Test G Post-Emergence Protocol; settings: Setaria faberi, post-emergence, 312 h; for pest or weed control at 15.625 g/ha: 15.625 g ai/ha, evaluated after 13 days (100=total damage to plant; 0=no damage to plant), read-out: Foxtail, Giant damage rating; for pest or weed control at 62.5 g/ha: 62.5 g ai/ha, read-out: Foxtail, Giant damage rating (100=total damage to plant; 0=no damage to plant); for pest or weed control at 62.5 g/ha / pest or weed control at 250 g/ha: evaluated after 13 days; for pest or weed control at 250 g/ha: 250 g ai/ha, read-out: damage to plant, Foxtail, Giant (100=total damage to plant; 0=no damage to plant)
Outline: (§1)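 Pot-grown seedlings, 8 days old, raised in a glasshouse at 24/16 °C day/night with 14 h light and 65% humidity, were sprayed post-emergence with test compound in acetone/water (50:50) plus 0.5% Tween 20 at 15.625, 62.5 or 250 g/ha. Damage was scored visually 13 days later on a 0–100 scale (100 = total damage).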

[2] = tested on: velvetleaf (Abutilon theophrasti); experiment: Test G Post-Emergence Protocol; settings: Abutilon theophrasti, post-emergence, 312 h; for pest or weed control at 15.625 g/ha: 15.625 g ai/ha, evaluated after 13 days (100=total damage to plant; 0=no damage to plant), read-out: Velvetleaf damage rating; for pest or weed control at 62.5 g/ha: 62.5 g ai/ha, read-out: Velvetleaf damage rating (100=total damage to plant; 0=no damage to plant); for pest or weed control at 62.5 g/ha / pest or weed control at 250 g/ha: evaluated after 13 days; for pest or weed control at 250 g/ha: 250 g ai/ha, read-out: damage to plant, Velvetleaf (100=total damage to plant; 0=no damage to plant)
Outline: as §1

corn (Zea mays) [3] = experiment: Test G Post-Emergence Protocol; settings: Zea mays, post-emergence, 312 h; for plant injury at 15.625 g/ha: 15.625 g ai/ha, evaluated after 13 days (100=total damage to plant; 0=no damage to plant), read-out: Corn damage rating; for plant injury at 62.5 g/ha: 62.5 g ai/ha, read-out: Corn damage rating (100=total damage to plant; 0=no damage to plant); for plant injury at 62.5 g/ha / plant injury at 250 g/ha: evaluated after 13 days; for plant injury at 250 g/ha: 250 g ai/ha, read-out: damage to plant, Corn (100=total damage to plant; 0=no damage to plant)
Outline: as §1

[4] = tested on: redroot pigweed (Amaranthus retroflexus); experiment: Test G Post-Emergence Protocol; settings: Amaranthus retroflexus, post-emergence, 312 h; for pest or weed control at 15.625 g/ha: 15.625 g ai/ha, evaluated after 13 days (100=total damage to plant; 0=no damage to plant), read-out: Pigweed, Redroot damage rating; for pest or weed control at 62.5 g/ha: 62.5 g ai/ha, read-out: Pigweed, Redroot damage rating (100=total damage to plant; 0=no damage to plant); for pest or weed control at 62.5 g/ha / pest or weed control at 250 g/ha: evaluated after 13 days; for pest or weed control at 250 g/ha: 250 g ai/ha, read-out: damage to plant, Pigweed, Redroot (100=total damage to plant; 0=no damage to plant)
Outline: as §1

[5] = tested on: ivy-leaved morning glory (Ipomoea hederacea); experiment: Test G Post-Emergence Protocol; settings: Ipomoea, post-emergence, 312 h; for pest or weed control at 15.625 g/ha: 15.625 g ai/ha, evaluated after 13 days (100=total damage to plant; 0=no damage to plant), read-out: Morningglory, Ivy-leaved damage rating; for pest or weed control at 62.5 g/ha: 62.5 g ai/ha, read-out: Morningglory, Ivy-leaved damage rating (100=total damage to plant; 0=no damage to plant); for pest or weed control at 62.5 g/ha / pest or weed control at 250 g/ha: evaluated after 13 days; for pest or weed control at 250 g/ha: 250 g ai/ha, read-out: damage to plant, Morningglory, Ivy-leaved (100=total damage to plant; 0=no damage to plant)
Outline: as §1

[6] = tested on: barnyardgrass (Echinochloa crus-galli); experiment: Test G Post-Emergence Protocol; settings: Echinochloa crus-galli, post-emergence, 312 h; for pest or weed control at 15.625 g/ha: 15.625 g ai/ha, evaluated after 13 days (100=total damage to plant; 0=no damage to plant), read-out: Barnyardgrass damage rating; for pest or weed control at 62.5 g/ha: 62.5 g ai/ha, read-out: Barnyardgrass damage rating (100=total damage to plant; 0=no damage to plant); for pest or weed control at 62.5 g/ha / pest or weed control at 250 g/ha: evaluated after 13 days; for pest or weed control at 250 g/ha: 250 g ai/ha, read-out: damage to plant, Barnyardgrass (100=total damage to plant; 0=no damage to plant)
Outline: as §1

[7] = tested on: giant foxtail (Setaria faberi); experiment: Test G Pre-Emergence Protocol; settings: Setaria faberi, pre-emergence, 312 h, evaluated after 13 days; for pest or weed control at 15.625 g/ha: 15.625 g ai/ha; for pest or weed control at 15.625 g/ha / pest or weed control at 250 g/ha: read-out: Foxtail, Giant damage rating (100=total damage to plant; 0=no damage to plant); for pest or weed control at 62.5 g/ha: 62.5 g ai/ha, 100=total damage to plant, 0=no damage to plant, read-out: plant damage rating, Foxtail, Giant; for pest or weed control at 250 g/ha: 250 g ai/ha
Outline: (§2)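 Under a 24/16° C day/night regime with 14 h light and 65% humidity, sown pots were sprayed after one day with compound (15.625, 62.5 or 250 g/ha; 50:50 acetone/water, 0.5% Tween 20). Damage was assessed visually 13 days later, 0 to 100.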

[8] = tested on: velvetleaf (Abutilon theophrasti); experiment: Test G Pre-Emergence Protocol; settings: Abutilon theophrasti, pre-emergence, 312 h, evaluated after 13 days; for pest or weed control at 15.625 g/ha: 15.625 g ai/ha; for pest or weed control at 15.625 g/ha / pest or weed control at 250 g/ha: read-out: Velvetleaf damage rating (100=total damage to plant; 0=no damage to plant); for pest or weed control at 62.5 g/ha: 62.5 g ai/ha, 100=total damage to plant, 0=no damage to plant, read-out: plant damage rating, Velvetleaf; for pest or weed control at 250 g/ha: 250 g ai/ha
Outline: as §2

corn (Zea mays) [9] = experiment: Test G Pre-Emergence Protocol; settings: Zea mays, pre-emergence, 312 h, evaluated after 13 days; for plant injury at 15.625 g/ha: 15.625 g ai/ha; for plant injury at 15.625 g/ha / plant injury at 250 g/ha: read-out: Corn damage rating (100=total damage to plant; 0=no damage to plant); for plant injury at 62.5 g/ha: 62.5 g ai/ha, 100=total damage to plant, 0=no damage to plant, read-out: plant damage rating, Corn; for plant injury at 250 g/ha: 250 g ai/ha
Outline: as §2

[10] = tested on: redroot pigweed (Amaranthus retroflexus); experiment: Test G Pre-Emergence Protocol; settings: Amaranthus retroflexus, pre-emergence, 312 h, evaluated after 13 days; for pest or weed control at 15.625 g/ha: 15.625 g ai/ha; for pest or weed control at 15.625 g/ha / pest or weed control at 250 g/ha: read-out: Pigweed, Redroot damage rating (100=total damage to plant; 0=no damage to plant); for pest or weed control at 62.5 g/ha: 62.5 g ai/ha, 100=total damage to plant, 0=no damage to plant, read-out: plant damage rating, Pigweed, Redroot; for pest or weed control at 250 g/ha: 250 g ai/ha
Outline: as §2

[11] = tested on: ivy-leaved morning glory (Ipomoea hederacea); experiment: Test G Pre-Emergence Protocol; settings: Ipomoea, pre-emergence, 312 h, evaluated after 13 days; for pest or weed control at 15.625 g/ha: 15.625 g ai/ha, read-out: Morning-glory, Ivy-leaved damage rating (100=total damage to plant; 0=no damage to plant); for pest or weed control at 62.5 g/ha: 62.5 g ai/ha, 100=total damage to plant, 0=no damage to plant, read-out: plant damage rating, Morningglory, Ivy-leaved; for pest or weed control at 250 g/ha: 250 g ai/ha, read-out: Morningglory, Ivy-leaved damage rating (100=total damage to plant; 0=no damage to plant)
Outline: as §2

[12] = tested on: barnyardgrass (Echinochloa crus-galli); experiment: Test G Pre-Emergence Protocol; settings: Echinochloa crus-galli, pre-emergence, 312 h, evaluated after 13 days; for pest or weed control at 15.625 g/ha: 15.625 g ai/ha, read-out: Barnyard grass damage rating (100=total damage to plant; 0=no damage to plant); for pest or weed control at 62.5 g/ha: 62.5 g ai/ha, 100=total damage to plant, 0=no damage to plant, read-out: plant damage rating, Barnyardgrass; for pest or weed control at 250 g/ha: 250 g ai/ha, read-out: Barnyardgrass damage rating (100=total damage to plant; 0=no damage to plant)
Outline: as §2

In the case of `CN1C[C@@H](c2ccc(C(F)(F)F)cc2)[C@H](C(=O)Nc2sccc2C#N)C1=O` (racemic) [Compound 1520], the pest or weed control at 15.625 g/ha [1] is reported as 0%, the pest or weed control at 62.5 g/ha [1] is reported as 30% and the pest or weed control at 250 g/ha [1] is reported as 70%. For the same molecule, the pest or weed control at 15.625 g/ha [2] was 0%, the pest or weed control at 62.5 g/ha [2] was 0% and the pest or weed control at 250 g/ha [2] was 10%. It also gave a plant injury at 15.625 g/ha (corn (Zea mays) [3]) of 0%, a plant injury at 62.5 g/ha (corn (Zea mays) [3]) of 0% and a plant injury at 250 g/ha (corn (Zea mays) [3]) of 20%. The pest or weed control at 15.625 g/ha [4] was 0%, the pest or weed control at 62.5 g/ha [4] was 0% and the pest or weed control at 250 g/ha [4] was 10%. For the same molecule, the pest or weed control at 15.625 g/ha [5] was 10%, the pest or weed control at 62.5 g/ha [5] was 30% and the pest or weed control at 250 g/ha [5] was 40%. For the same molecule, the pest or weed control at 15.625 g/ha [6] was 0%, the pest or weed control at 62.5 g/ha [6] was 30% and the pest or weed control at 250 g/ha [6] was 60%. For the same molecule, the pest or weed control at 15.625 g/ha [7] was 20%, the pest or weed control at 62.5 g/ha [7] was 60% and the pest or weed control at 250 g/ha [7] was 80%. The pest or weed control at 15.625 g/ha [8] was 0%, the pest or weed control at 62.5 g/ha [8] was 0% and the pest or weed control at 250 g/ha [8] was 0%. It also gave a plant injury at 15.625 g/ha (corn (Zea mays) [9]) of 0%, a plant injury at 62.5 g/ha (corn (Zea mays) [9]) of 0% and a plant injury at 250 g/ha (corn (Zea mays) [9]) of 0%. The pest or weed control at 15.625 g/ha [10] was 0%, the pest or weed control at 62.5 g/ha [10] was 0% and the pest or weed control at 250 g/ha [10] was 30%. It also gave a pest or weed control at 15.625 g/ha [11] of 0%, a pest or weed control at 62.5 g/ha [11] of 0% and a pest or weed control at 250 g/ha [11] of 0%. For the same molecule, the pest or weed control at 15.625 g/ha [12] was 20%, the pest or weed control at 62.5 g/ha [12] was 50% and the pest or weed control at 250 g/ha [12] was 90%.
For `Cc1cccc(NC(=O)[C@@H]2C(=O)N(C)C[C@H]2c2ccc(C(F)(F)F)cc2)c1[N+](=O)[O-]` (racemic) [Compound 1636], the pest or weed control at 15.625 g/ha [1] was 50%, the pest or weed control at 62.5 g/ha [1] was 70% and the pest or weed control at 250 g/ha [1] was 70%. It also gave a pest or weed control at 15.625 g/ha [2] of 0%, a pest or weed control at 62.5 g/ha [2] of 0% and a pest or weed control at 250 g/ha [2] of 0%. For the same molecule, the plant injury at 15.625 g/ha (corn (Zea mays) [3]) was 0%, the plant injury at 62.5 g/ha (corn (Zea mays) [3]) was 0% and the plant injury at 250 g/ha (corn (Zea mays) [3]) was 0%. For the same molecule, the pest or weed control at 15.625 g/ha [4] was 0%, the pest or weed control at 62.5 g/ha [4] was 0% and the pest or weed control at 250 g/ha [4] was 0%. The pest or weed control at 15.625 g/ha [5] was 0%, the pest or weed control at 62.5 g/ha [5] was 0% and the pest or weed control at 250 g/ha [5] was 0%. It also gave a pest or weed control at 15.625 g/ha [6] of 10%, a pest or weed control at 62.5 g/ha [6] of 50% and a pest or weed control at 250 g/ha [6] of 50%. It also gave a pest or weed control at 15.625 g/ha [7] of 0%, a pest or weed control at 62.5 g/ha [7] of 40% and a pest or weed control at 250 g/ha [7] of 60%. The pest or weed control at 15.625 g/ha [8] was 0%, the pest or weed control at 62.5 g/ha [8] was 0% and the pest or weed control at 250 g/ha [8] was 0%. It also gave a plant injury at 15.625 g/ha (corn (Zea mays) [9]) of 0%, a plant injury at 62.5 g/ha (corn (Zea mays) [9]) of 0% and a plant injury at 250 g/ha (corn (Zea mays) [9]) of 0%. It also gave a pest or weed control at 15.625 g/ha [10] of 0%, a pest or weed control at 62.5 g/ha [10] of 0% and a pest or weed control at 250 g/ha [10] of 0%. It also gave a pest or weed control at 15.625 g/ha [11] of 0%, a pest or weed control at 62.5 g/ha [11] of 0% and a pest or weed control at 250 g/ha [11] of 0%. It also gave a pest or weed control at 15.625 g/ha [12] of 0%, a pest or weed control at 62.5 g/ha [12] of 10% and a pest or weed control at 250 g/ha [12] of 30%.
